According to US8318708B2, “Use of vitamin D receptor agonists, ligands, and precursors to treat pancreatic fibrosis” (Salk Institute for Biological Studies, priority 2007, dated 2012):

Tests used:
[1] = tested on: VDR; assay: Western blot of VDR in hepatocytes treated with TGF-β1; format: cell-based, rat; human; conditions: TGF-β1 2 ng/mL, 24 hours, FIG. 14
Experimental: Primary rat hepatocytes were isolated from Sprague-Dawley rats by collagenase in situ perfusion and plated on collagen in Williams E medium. The immortalized human hepatocyte (IHH) cell line was cultured in DMEM/F12+GlutaMax with insulin and dexamethasone. Primary rat hepatocytes or immortalized human hepatocytes were cultured for two days, then subsequently treated with TGF-β1 (2 ng/mL human, recombinant expressed in CHO cells from Sigma-Aldrich, # T7039) for 24 hours and compared to untreated controls. Protein was prepared from harvested cells and western blotting for VDR was accomplished using a specific anti-VDR antibody (anti-human VDR antibody from R&D systems CAT # PP-H4537-00 and rat anti-VDR monoclonal antibody from Chemocon International CAT # MAB1360). Recombinant human VDR protein was included as a positive control.

[2] = tested on: hepatocytes; assay: Illumina Sentrix arrays: hepatocytes treated with TGF-β1 and calcitriol (Tables 9 and 10); format: cell-based; conditions: rat hepatocytes, TGF-β1 2 ng/mL, 24 h
Experimental: Cells were cultured and treated as described in Example 14. Gene expression was determined using Illumina Sentrix expression arrays, rat version 1, according to the manufacturer's instructions.
Triplicate biologic replicates were assayed for each treatment.

[3] = tested on: primary HSCs; assay: Illumina array: TGFβ1-treated primary rat HSCs with vitamin D3 (Table 4); conditions: rat HSCs 24 h; TGFβ1 100 pM, vitamin D3 1 nM
Experimental: (§1) For Illumina microarray analysis, Illumina TotalPrep RNA Amplification Kit (Ambion; Catalog # IL1791) was used with the manufacturer's instructions for the RNA amplification. […] Essentially, biotinylated cRNA was prepared according to the manufacturer's directions starting with 200 ng total RNA. Hybridization to the Illumina Sentrix RatRef-12 v.1 and Mouse RefSeq version 2 Expression BeadChips (Illumina, Inc., San Diego, Calif.), washing and scanning were performed according to the Illumina BeadStation 500× manual (revision C). […] RNA is isolated using Trizol and the quality/integrity of the total RNA verified using a Bioanalyzer (Agilent).
(§2) Microarray experiments were repeated two times with RNA from two experiments where HSCs were isolated from two different rats and for each condition triplicate samples were used. The “Detection Score” was used to determine expression using the Illumina platform. It is a statistical measure in the BeadStudio software (version 1.5.0.34), which is computed based on the Z-value of a gene relative to the Z-value of the negative controls. The Illumina data were adjusted (“normalized”) using a cubic spline function. […] The expression difference score, DiffScore, takes into account background noise and sample variability. […] Illumina expression arrays utilize gene-specific 50-mer oligonucleotide probes with an average of 30 replicates of each probe bead per individual array.
The Illumina platform described above was used to identify genome-wide effects of vitamin D3-activated VDR on TGFβ signaling in primary rat HSCs. Isolated primary HSCs were cultured on plastic tissue culture plates for 40 hours prior to treatment with or without vitamin D3 (1 nM) in the presence or absence of TGFβ1 (100 pM) for 24 hours. Cells were then harvested, total RNA extracted, and biotin labeled cRNA was prepared for hybridization to an Illumina Rat RefSeq version 1 genome array. […] The data generated from these arrays was processed using Illumina BeadStudio software to identify gene expression changes between the different samples. The vitamin D3 mediated changes on TGFβ1 signaling were identified by comparing TGFβ1 and co-treated TGFβ1/vitamin D3 samples.

[4] = tested on: HSCs; conditions: rat HSCs 24 h; LPS 15 ng/ml, TGFβ 2 ng/ml, calcitriol 10 nM; control = 1
Experimental: as §1, §2
Two different HSCs from different rats were used for the lumina microarray analysis. […] Values are expressed as fold change relative to control cells treated with vehicle alone.

[5] = molecular target: T1, VDR (Rattus norvegicus, UniProt P13053); assay: Western blot of VDR in sinusoidal endothelial cells (SECs); format: cell-based; parameters: endogenous in cells; host or cells: primary rat hepatic stellate cells, sinusoidal endothelial cells, Kupffer cells and hepatocytes (Sprague-Dawley rats); conditions: FIG. 10A
T1 sequence (P13053 1-423): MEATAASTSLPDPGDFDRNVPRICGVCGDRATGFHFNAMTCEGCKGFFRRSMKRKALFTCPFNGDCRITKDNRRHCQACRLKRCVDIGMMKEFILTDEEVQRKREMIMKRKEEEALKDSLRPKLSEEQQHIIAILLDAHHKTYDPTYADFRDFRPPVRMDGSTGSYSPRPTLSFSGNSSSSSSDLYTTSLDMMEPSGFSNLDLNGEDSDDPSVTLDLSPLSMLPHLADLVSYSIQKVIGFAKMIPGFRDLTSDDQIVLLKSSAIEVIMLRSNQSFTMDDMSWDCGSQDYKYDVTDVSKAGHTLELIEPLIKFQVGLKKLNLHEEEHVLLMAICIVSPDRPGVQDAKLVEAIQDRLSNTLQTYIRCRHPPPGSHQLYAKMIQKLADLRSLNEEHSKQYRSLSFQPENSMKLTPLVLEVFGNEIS
From the text: Hepatic sinusoidal endothelial cells (SECs) and Kupffer cells (KCs) were elutriated from rat liver and maintained in cell culture.

[6] = molecular target: T1, VDR; assay: QPCR of VDR, Cyp24a1 and Hnf4α mRNA in primary rat hepatocytes; format: cell-based; parameters: endogenous in cells; host or cells: primary rat hepatic stellate cells, sinusoidal endothelial cells, Kupffer cells and hepatocytes (Sprague-Dawley rats); conditions: 24 hours, TGF-β1 2 ng/mL, calcitriol 10 nM

“TGF-β1: transforming growth factor beta 1; human recombinant from Sigma-Aldrich T7039” was tested, and the “Increase in VDR expression (western blot)” value [1] was “at least 5 fold”, the Abcb4 gene expression [2] was 96.93 and the Abcg2 gene expression [2] was 913.91. For the same substance, the Abcg4 gene expression [2] was 95.82, the Ccl3 gene expression [2] was 540.53 and the Ccl4 gene expression [2] was 380.06. The Ccl7 gene expression [2] was 1303.89, the Ccl12 gene expression [2] was 368.02 and the Cd44 gene expression [2] was 680.16. For the same substance, the Cxcr4 gene expression [2] was 164.68, the Cyp1a2 gene expression [2] was 135.53 and the Cyp2d1 gene expression [2] was 147.68. For the same substance, the Cyp2d5 gene expression [2] was 338.34, the Cyp3a23/3a1 gene expression [2] was 380.28 and the Gstm1 gene expression [2] was 2230.15. The Gstm2 gene expression [2] was 715.15, the Gsto1 gene expression [2] was 1364.06 and the Il1a gene expression [2] was 675.41. The Il1b gene expression [2] was 1551.37, the Jak2 gene expression [2] was 669.28 and the Mmp9 gene expression [2] was 159.27. It also gave a Nos2 gene expression [2] of 90.7, a Slc7a6os gene expression [2] of 241.22 and a Slc25a4 gene expression [2] of 671.16. It also gave a Slc25a19 gene expression [2] of 195.9, a Slc28a1 gene expression [2] of 50.32 and a Slc28a2 gene expression [2] of 157.29. The Slc35a4 gene expression [2] was 157.88, the Slc37a4 gene expression [2] was 246.55 and the Tlr2 gene expression [2] was 978.98. It also gave a Tlr7 gene expression [2] of 110.03, a Ugt2b5 gene expression [2] of 155.32 and a cyp2a1 gene expression [2] of 216.95. The cyp2c22 gene expression [2] was 2009.34, the cyp4a10 gene expression [2] was 91.71 and the cyp24a1 gene expression [2] was 56.9. The slc25a1 gene expression [2] was 1375.94, the slc25a5 gene expression [2] was 2038.43 and the slc26a1 gene expression [2] was 181.21. The slc39a1 gene expression [2] was 489.71, the Mmp10 gene change [3] was “↓” and the Mmp13 gene change [3] was “N/C”. The Ccl5 gene expression [4] was 0.957 fold change, the Ccl12 gene expression [4] was 1.167 fold change and the Ccl20 gene expression [4] was 0.999 fold change. The Col1a1 gene expression [4] was 3.014 fold change, the Col1a2 gene expression [4] was 2.256 fold change and the Col3a1 gene expression [4] was 1.878 fold change. The Col5a1 gene expression [4] was 2.322 fold change, the Col5a2 gene expression [4] was 1.583 fold change and the Col6a3 gene expression [4] was 1.611 fold change. For the same substance, the Col8a1 gene expression [4] was 2.240 fold change, the Csf2 gene expression [4] was 0.803 fold change and the Ctgf gene expression [4] was 1.919 fold change. For the same substance, the Cx3cl1 gene expression [4] was 0.864 fold change, the Cxcl5 gene expression [4] was 0.971 fold change and the Cxcl9 gene expression [4] was 0.875 fold change. For the same substance, the Cxcl11 gene expression [4] was 1.05 fold change, the Icam1 gene expression [4] was 1.371 fold change and the Il1a gene expression [4] was 0.517 fold change. For the same substance, the Il1b gene expression [4] was 0.322 fold change, the Il6 gene expression [4] was 0.791 fold change and the Il10 gene expression [4] was 0.837 fold change. The Mmp7 gene expression [4] was 1.692 fold change, the Mmp10 gene expression [4] was 1.856 fold change and the Mmp13 gene expression [4] was 1.342 fold change. For the same substance, the Smad2 gene expression [4] was 1.381 fold change, the Smad3 gene expression [4] was 1.116 fold change and the Smad4 gene expression [4] was 1.325 fold change. It also gave a Tgfb1 gene expression [4] of 1.502 fold change, a Tgfbr1 gene expression [4] of 1.317 fold change and a Timp1 gene expression [4] of 1.026 fold change. It also gave a Timp2 gene expression [4] of 1.823 fold change, a Tlr2 gene expression [4] of 1.092 fold change and a Tlr4 gene expression [4] of 1.349 fold change. For the same substance, the Tnf gene expression [4] was 1.078 fold change, the Tnfrsf5 gene expression [4] was 1.339 fold change and the Tnfrsf14 gene expression [4] was 1.373 fold change. The Vcam1 gene expression [4] was 1.482 fold change, the VDR protein expression [5] was “induced” and the “Cyp24a1 mRNA expression” value [6] was “no effect”. The HNF4α expression [6] was “some increase” and the “VDR mRNA expression” value [6] was “capable of inducing”.
